Source: patent publication US20100298251A1, “WOUND-HEALING AGENT CONTAINING MOMORDICAE SEMEN EXTRACT” (priority 2007, published 2010)
Where “and” joins values, the source holds several entries; their conditions need not be identical. Equal entries are not always repeated.

System: wounded mouse skin
Test: Wound-healing effect in wounded skin mouse model (topical, once daily for 10 days)
Assay type: in vivo
[1] = group mean (X, 5 mice), topical x10, dose/mouse: extract 50 μg, fraction 3 10 μg, saponin I 5 μg, CGS-21680 10 μg
[2] = group mean (X, 5 mice), topical x10, dose/mouse: extract 50 μg, fraction 3 10 μg, saponin I 5 μg, CGS-21680 10 μg, * P<0.05 vs vehicle
[3] = individual mouse (N 1-5), same doses as group means

Procedure: Thus prepared test materials(20 μl) were topically applied on the wounded mouse skin, once daily for 10 consecutive days.
As a positive control drug, CGS-21680 (Tocris, USA) was prepared same as the above, and topically administered at a dosage of 10 μg/20 μl, once daily for 10 consecutive days.
Twenty-five male mice of CD-1 origin having 24 g±2 g of body weight were divided into 5 groups. The mice were put into separate cages. After anesthesia with hexobarbital (90 mg/kg, IP), the furs on the shoulders and the backs of the mice were shaved. A portion of skin including a muscle layer beneath the skin and a tissue attached thereof was cut off by using a sharp punch (ID12 mm). After being wounded on the skin, the mice were administered topically with the test materials of Momordicae semen extract, Momordica saponin I fraction 3, Momordica saponin I, and CGS-21680 were, respectively, at a concentration of 50, 10, 5, and 10 μg/20 μl, respectively, once daily for 10 consecutive days.
The area of wounded skin detected on a transparent plastic sheet was measured using Image-ProPlus (Media Cybernetics, Version 4.5.0.29) on day 1, 3, 5, 7, 9, and 11. […] The Dunnett's test was performed after one-way analysis of variance (one-way ANOVA), in order for the comparison between the treated group and the vehicle group at each measuring point. The difference was of statistical significance at P<0.05.

SMILES	Wound Closure Rate (%) Day 1 [1]	Wound Closure Rate (%) Day 3 [2]	Wound Closure Rate (%) Day 5 [2]	Wound Closure Rate (%) Day 7 [2]	Wound Closure Rate (%) Day 9 [2]	Wound Closure Rate (%) Day 11 [2]	CT50 (time required for wound closure) [2]	Wound Closure Rate (%) Day 1 [3]	Wound Closure Rate (%) Day 3 [3]	Wound Closure Rate (%) Day 5 [3]	Wound Closure Rate (%) Day 7 [3]	Wound Closure Rate (%) Day 9 [3]	Wound Closure Rate (%) Day 11 [3]	CT50 (time required for wound closure) [3]	wound-healing effect (overall statement on Table 2 and FIG. 1)
CC1OC(OC2C(O)C(C(=O)O)OC(OC3CCC4(C)C(CCC5(C)C4CC=C4C6CC(C)(C)CCC6(C(=O)OC6OC(C)C(O)C(O)C6OC6OC(C)C(OC7OCC(O)C(O)C7O)C(OC7OC(CO)C(O)C(OC8OCC(O)C(O)C8O)C7O)C6O)CCC45C)C3(C)C=O)C2OC2OC(CO)C(O)C(O)C2O)C(O)C(O)C1O [Momordica Saponin I, 3-O-beta-D-Galactopyranosyl (1->2)-[alpha-L-rhamnopyranosyl (1->3)]-beta-D-glucuronopyranosido-28-O-beta-D-xylopyranosyl (1->3)-beta-D-glucopyranosyl (1->3)-[beta-D-xylopyranosyl (1->4)]-alpha-L-rhamnopyranosyl (1->2)-beta-D-fucopyranosyl gypsogenin]	0.0%	*40.1%	*53.0%	*66.1%	*77.3%	*83.4%	*5.6 Days	0.0%	32.9% and 45.4% (2×) and 31.2% and 45.6%	54.4% and 54.8% and 48.8% and 51.4% and 55.5%	69.9% and 71.5% and 58.8% and 62.9% and 67.5%	80.8% and 80.4% and 69.4% and 75.6% and 80.5%	85.0% and 88.3% and 78.1% and 84.6% and 81.1%	5.5 days and 5.2 days and 6.3 days and 5.6 days and 5.3 days	superior wound-healing effects
CCNC(=O)[C@H]1O[C@@H](n2cnc3c(N)nc(NCCc4ccc(CCC(=O)O)cc4)nc32)[C@H](O)[C@@H]1O [CGS-21680, reference compound]	0.0%	*45.1%	*58.5%	*68.5%	*79.0%	*83.1%	*5.2 Days	0.0%	46.7% (2×) and 36.0% and 54.4% and 41.6%	62.5% and 59.3% and 55.5% and 59.6% and 55.8%	71.2% and 66.5% and 62.7% and 71.8% and 70.3%	79.9% and 74.7% and 79.7% and 81.6% and 79.2%	85.6% and 84.6% and 78.3% and 82.9% and 84.3%	5.0 days and 5.6 days and 5.2 days and 5.1 days and 5.3 days	–
